{"source": "patent US20250222100A1", "about": "“COMPLETE TOLEROGENIC ADJUVANT AND METHODS OF USING THE SAME” (THE BOARD OF TRUSTEES OF THE UNIVERSITY OF ILLINOIS, priority 2024, published 2025)", "key": {"[1]": {"tested_on": "monocyte-derived macrophages in DLN, NLN and spleen", "assay": "Systemic MMφ influx into draining and non-draining lymph nodes (R848, 8206)", "type": "in vivo, C56BL/6 mice", "experimental": "FIGS. 9A-9B show the effect of R848 on draining lymph node (DLN) versus non-draining lymph node (NLN). (FIG. 9A) C56BL/6 mice (10-week-old) were injected at the right-footpad with 20 μl of PBS containing DMSO (control), 3 μg of MPLA, or an equal molar amount (0.6 μg) of R848. At 24 hours, monocyte-derived macrophages (MM) in both the DLN and the NLN were counted by flow cytometry. Data are mean±SD of four experiments (on a log scale). * p≤0.001 (one-way ANOVA). (FIG. 9B) Dose-response analysis of R848. C56BL/6 mice (10-week-old) were injected subcutaneously at the back flank with 50 μl of PBS containing 8 μg of dexamethasone, 20 μg of rapamycin, and an indicated dose of R848. At 24 h, MMφ in popliteal lymph nodes were counted. Shown is a nonlinearly fitted substrate inhibition curve for mean±SD of 4-8 LNs. * p≤0.01 (one-way ANOVA).\nC56BL/6 mice (10-week-old) were injected subcutaneously at the back flank with 8206 or PBS. At 24 hours, MMO in popliteal (PLN), axillary (ALN), mesenteric (MLN), and caudal mediastinal (CLN) lymph nodes and the spleen (SP) were counted. Data are mean±SD of four experiments (on a log scale). *p≤0.01 (t-test).\nPreparation and Injection of Composition 8206. Composition 8206 was prepared in the same steps as described for 8203 (Example 1), except that R848 was used in place of MPLA. It was injected subcutaneously at the back flank in 50 μl of PBS. […]"}, "[2]": {"tested_on": "KJ1-26+ Treg and Teff cells in DLN, NLNs and spleen", "assay": "Inhibition of T cell egress with FTY720 in the model", "type": "in vivo, BALB/c Foxp3-eGFP mice", "settings": "FTY720 with OVA-in-8203", "experimental": "Inhibition of T Cell Egress with FTY720. FTY720 was dissolved in DMSO at 20 μg/μl. On day 5 in the model, 1 μl of FTY720 was mixed with one dose of OVA-in-8203, and the mixture was injected into the primed footpad. As a control, 1 μl of DMSO was used in place of FTY720, and the mixture was injected into a control group. On days 6 and 7, the mice were given additional injections (i.p.) of FTY720 (or DMSO) at 1 μl (diluted in 100 μl PBS)/mouse/day. On day 8, KJ1-26^+ Treg and Teff cells in the DLN, NLNs, and the spleen were counted, as described earlier."}, "[3]": {"tested_on": "antigen-reactive Treg and Teff cells", "assay": "Ki67 assay of antigen-reactive T cells in AFK mice", "type": "in vivo, AFK mice (C57BL/6 Apoe-/- Foxp3-eGFP Ki67-tagRFP)", "settings": "FTY720 after 8206", "experimental": "Preparation and Injection of Composition 8206. Composition 8206 was prepared in the same steps as described for 8203 (Example 1), except that R848 was used in place of MPLA. It was injected subcutaneously at the back flank in 50 μl of PBS. PBS containing DMSO (as “PBS”), which was the initial solvent for rapamycin and R848, was used as a control.\nKi67-TagRFP-Based In Vitro Proliferation Assay for T Cells (“Ki67 Assay”). Total cells were isolated from lymphoid organs, washed twice in RPMI 1640/10% FCS, and counted by flow cytometry as described in Example 1. A portion of the isolated cells was cultured at 1×10^6 cells/well in a 96-well U-bottom plate. The wells were filled with 200 μl of RPMI 1640/10% FCS supplemented with 2-mercaptoethanol (50 μM), murine IL-2 (20 ng/ml), MPLA (100 ng/ml), sodium pyruvate (1 mM), and a peptide antigen (3 μg/ml) or DMSO (as a solvent control for the antigen). After 5 days, the cells were analyzed by flow cytometry with a BD FACS Melody. Proliferating Treg and Teff cells were identified as CD4+Foxp-eGFP+Ki67-TagRFP+CD62L1o and CD4+Foxp-eGFP Ki 67-TagRFP+CD62L10 populations, respectively; the cells were counted by the method of Schlenke ((1998) Cytometry 33:310-317). […] The difference was expressed as count/organ by multiplying the total number of cells in an organ divided by the portion used in the assay. […]"}, "[4]": {"tested_on": "MMφs, DCs, Treg cells and Teff cells in draining lymph node", "assay": "Adjuvant-induced potentiation in lymphoid organs after footpad injection", "type": "in vivo, mouse", "settings": "one day", "experimental": "Footpad Injection. “A footpad” means the footpad of the right hind leg. Adjuvant components, antigens, or their combinations were injected subcutaneously (s.c.) between the 3rd and 4th toes in a volume of ˜20 μl in phosphate-buffered saline (PBS) with a BD insulin syringe.\nDose-Response Analysis. For dose-response analysis of MPLA, the reagent was serially diluted in DMSO; 5 μl of the diluted reagent were mixed with 100 μl of PBS and the resulting mixture was injected at 20 μl/footpad. For dose 0, 5 μl of DMSO were mixed with 100 μl of PBS and the resulting mixture was injected. Dose-response analysis of rapamycin was performed similarly, except that PBS containing 3 μg of MPLA was used in place of PBS.\nAnalysis of Adjuvant-Induced Potentiation in Lymphoid Organs. […] Cells were analyzed by flow cytometry. […] The total counts of MMos (CD11^loCD40^lo) (Zheng et al. (2013) Eur. J. Immunol. 43:219-227) and DCs (all the CD11+CD40^+ cells after excluding the CD11^loCD40^lo cells) (Zheng et al. (2013) Eur. J. Immunol. 43:219-227) in the cell suspension were determined by the method of Schlenke et al. ((1998) Cytometry 33:310-317). The MMφ count in percent was calculated as % of the total MMO and DC counts combined. […]"}, "[5]": {"tested_on": "KJ1-26+ Treg and Teff cells", "assay": "Mouse model testing tolerogenic adjuvants (the model): KJ1-26+ T cell counts and proliferation", "type": "in vivo, BALB/c Foxp3-eGFP mice", "settings": "OVA with indicated components once every 3 days", "experimental": "Mouse Model Testing Tolerogenic Adjuvants (“the Model”). The model was generated as follows: On day 0, whole blood was collected with heparin as the anticoagulant from a DO11.10 Foxp3-eGFP mouse. The blood was diluted 1:50 in PBS and transfused intravenously (i.v.) into sex-matched syngeneic BALB/c Foxp3-eGFP mice at ˜100 μl (containing ˜4,000 CD4+KJ1-26^+ cells) per mouse. On day 1, the recipients were injected at a footpad with 100 μg of OVA in 20 μl of PBS (see “Footpad Injection”) and let rest. On day 5, they were used as the model.\nDetermination of CD4^+ T cell Counts in the Model. A cell suspension was prepared from the DLN, NLNs, or the spleen as described herein. For counting CD4^+ T cells in the DLN, a portion of the DLN cell suspension was stained with PE/Cy7 anti-CD3 and APC anti-CD4 and analyzed by flow cytometry. The total CD4^+ T cell count (CD3+CD4+) in the suspension was determined by the method of Schlenke et al. ((1998) Cytometry 33:310-317). […] Cells were analyzed by flow cytometry. The total counts in the suspension for KJ1-26^+ Treg, KJ1-26^+ Teff, host Treg, and host Teff cells were calculated as portions of the total CD4^+ T cell count. The count in percent for Treg cells (“% Treg”) was calculated as % of the total Treg and Teff counts combined. […]"}}, "note": "Counter-ions that a name gives are not always drawn.", "data": [{"compound": "CCOCc1nc2c(N)nc3ccccc3c2n1CC(C)(C)O", "note": "[R848, resiquimod]", "values": [{"measurement": "optimal dose for systemic MMφ effect", "setting": "[1]; combined with 8 μg dexamethasone and 20 μg rapamycin, s.c. back flank", "result": "about 6 μg"}]}, {"compound": "CCCCCCCCc1ccc(CCC(N)(CO)CO)cc1", "note": "[FTY720, fingolimod HCl]", "values": [{"measurement": "gain of KJ1-26+ Treg counts in NLNs and spleen", "setting": "[2]", "result": "could be blocked"}, {"measurement": "accumulation of P210m-reactive Treg cells in spleen with egress blocker", "setting": "[3]", "result": "could be inhibited"}]}, {"compound": "monophosphoryl lipid A [MPLA]", "values": [{"measurement": "attraction of MMφs to non-draining lymph nodes", "setting": "[1]; footpad, 24 hours", "result": "could not"}, {"measurement": "influx of MMφs, Teff cells, DCs and Treg cells to the DLN", "setting": "[4]; injected alone into a footpad, BALB/c mouse", "result": "induced an influx of MMφs and Teff cells preferentially over that of DCs and Treg cells"}, {"measurement": "abundance and absolute number of MMφs in the DLN", "setting": "[4]; single footpad injection, BALB/c", "result": "attract MMS"}, {"measurement": "role of component in prolonging Treg cell expansion / shortening Teff cell expansion in DLN", "setting": "[5]", "result": "not required here for either effect"}]}]}
